Our source for the mutagenic call values is PubChem BioAssay AID1259407 (Chemical Carcinogenesis Research Information System (CCRIS), 2018).

The data set has as its system CCRIS mutagenicity, Ames/micronucleus/aberration tests. Description: CCRIS mutagenicity studies.
Where [1] appears, read: Test System: AMES SALMONELLA TYPHIMURIUM, Strain/Indicator: TA98, Metabolic Activation: NONE, Method: STANDARD PLATE.
[2] abbreviates: Test System: AMES SALMONELLA TYPHIMURIUM, Strain/Indicator: TA98, Metabolic Activation: RAT, LIVER, S-9, AROCLOR 1254, Method: STANDARD PLATE.
[3] abbreviates: Test System: AMES SALMONELLA TYPHIMURIUM, Strain/Indicator: TA100, Metabolic Activation: NONE, Method: STANDARD PLATE.
[4] abbreviates: Test System: AMES SALMONELLA TYPHIMURIUM, Strain/Indicator: TA100, Metabolic Activation: RAT, LIVER, S-9, AROCLOR 1254, Method: STANDARD PLATE.
The mark [5] stands for this setting: Test System: AMES SALMONELLA TYPHIMURIUM, Strain/Indicator: TA1535, Metabolic Activation: NONE, Method: STANDARD PLATE.
[6] abbreviates: Test System: AMES SALMONELLA TYPHIMURIUM, Strain/Indicator: TA1535, Metabolic Activation: RAT, LIVER, S-9, AROCLOR 1254, Method: STANDARD PLATE.
The mark [7] stands for this setting: Test System: AMES SALMONELLA TYPHIMURIUM, Strain/Indicator: TA1537, Metabolic Activation: NONE, Method: STANDARD PLATE.
[8] abbreviates: Test System: AMES SALMONELLA TYPHIMURIUM, Strain/Indicator: TA1537, Metabolic Activation: RAT, LIVER, S-9, AROCLOR 1254, Method: STANDARD PLATE.
The mark [9] stands for this setting: Test System: AMES SALMONELLA TYPHIMURIUM, Strain/Indicator: TA1538, Metabolic Activation: RAT, LIVER, S-9, AROCLOR 1254, Method: STANDARD PLATE.
The mark [10] stands for this setting: Test System: UDS RODENT HEPATOCYTES, Strain/Indicator: THY INCORP, Metabolic Activation: NONE, Method: AUTORADIOGRAPHY

Activity calls are given as the source filed them. No rule for the calls is given here.

Take `CC1=CCC(C(C)(C)O)CC1` (centres undefined): the mutagenic call was “inactive; negative” (Test System: AMES SALMONELLA TYPHIMURIUM, Strain/Indicator: TA97A, Metabolic Activation: NONE, Method: STANDARD PLATE); “inactive; negative” (Test System: AMES SALMONELLA TYPHIMURIUM, Strain/Indicator: TA97A, Metabolic Activation: RAT LIVER S-9, AROCLOR 1254, Method: STANDARD PLATE); “inactive; negative” (Test System: AMES SALMONELLA TYPHIMURIUM, Strain/Indicator: TA98, Metabolic Activation: HAMSTER, LIVER, S-9, AROCLOR 1254, Method: STANDARD PLATE); “inactive; negative” under setting [1]; “inactive; negative” (Test System: AMES SALMONELLA TYPHIMURIUM, Strain/Indicator: TA98, Metabolic Activation: RAT LIVER S-9 AROCLOR 1254, Method: STANDARD PLATE); “inactive; negative” under setting [2]. Besides, the mutagenic call by setting is: (Test System: AMES SALMONELLA TYPHIMURIUM, Strain/Indicator: TA100, Metabolic Activation: HAMSTER, LIVER, S-9, AROCLOR 1254, Method: STANDARD PLATE) “inactive; negative”; under setting [3], “inactive; negative”; (Test System: AMES SALMONELLA TYPHIMURIUM, Strain/Indicator: TA100, Metabolic Activation: RAT LIVER S-9, AROCLOR 1254, Method: STANDARD PLATE) “inactive; negative”; under setting [4], “inactive; negative”; (Test System: AMES SALMONELLA TYPHIMURIUM, Strain/Indicator: TA1535, Metabolic Activation: HAMSTER, LIVER, S-9, AROCLOR 1254, Method: STANDARD PLATE) “inactive; negative”; under setting [5], “inactive; negative”. For the same compound, the mutagenic call is “inactive; negative” under setting [6]; “inactive; negative” (Test System: AMES SALMONELLA TYPHIMURIUM, Strain/Indicator: TA1537, Metabolic Activation: HAMSTER, LIVER, S-9, AROCLOR 1254, Method: STANDARD PLATE); “inactive; negative” under setting [7]; “inactive; negative” under setting [8]; “inactive; negative” (Test System: AMES SALMONELLA TYPHIMURIUM, Strain/Indicator: TA1538, Metabolic Activation: HAMSTER, LIVER, S-9, AROCLOR 1254, Method: STANDARD PLATE); “inactive; negative” (Test System: AMES SALMONELLA TYPHIMURIUM, Strain/Indicator: TA1538, Metabolic Activation: NONE, Method: STANDARD PLATE). Besides, the mutagenic call under setting [9] was “inactive; negative”; the mutagenic call (Test System: MOUSE LYMPHOMA, Strain/Indicator: L5178Y (TK+/TK-), Metabolic Activation: NONE, Method: SUSPENSION/PLATE) was “inactive; negative. reevaluation of results: negative”; the mutagenic call (Test System: MOUSE LYMPHOMA, Strain/Indicator: L5178Y (TK+/TK-), Metabolic Activation: RAT, LIVER, S-9, AROCLOR 1254, Method: SUSPENSION/PLATE) was “inactive; negative. reevaluation of results: negative”.

As to `c1ccc2c(c1)-c1ccc3ccc4cccc5cc-2c1c3c45`, the mutagenic call was “inactive; negative” under setting [3]; “active; positive” (Test System: AMES SALMONELLA TYPHIMURIUM, Strain/Indicator: TA100, Metabolic Activation: RAT, LIVER, S-9, AROCLOR 1254, Method: PREINCUBATION); “active; positive” under setting [4]; “active; positive” under setting [8]; “active; positive” under setting [9].

For the compound `NC(=O)c1cccnc1`, the mutagenic call (Test System: AMES SALMONELLA TYPHIMURIUM, Strain/Indicator: TA97A, Metabolic Activation: NONE, Method: PREINCUBATION) is “inactive; negative”; the mutagenic call (Test System: AMES SALMONELLA TYPHIMURIUM, Strain/Indicator: TA97A, Metabolic Activation: RAT, LIVER, S-9, AROCLOR 1254, Method: PREINCUBATION) was “inactive; negative”; the mutagenic call (Test System: AMES SALMONELLA TYPHIMURIUM, Strain/Indicator: TA102, Metabolic Activation: NONE, Method: PREINCUBATION) was “inactive; negative”; the mutagenic call (Test System: AMES SALMONELLA TYPHIMURIUM, Strain/Indicator: TA102, Metabolic Activation: RAT, LIVER, S-9, AROCLOR 1254, Method: PREINCUBATION) is “inactive; negative”.

On to `Cc1ccccc1N=Nc1ccc(N)c(C)c1N`, for which the mutagenic call is “active; positive” (Test System: AMES SALMONELLA TYPHIMURIUM, Strain/Indicator: TA100, Metabolic Activation: HUMAN, LIVER, S-9, Method: PREINCUBATION); “active; positive” (Test System: AMES SALMONELLA TYPHIMURIUM, Strain/Indicator: TA100, Metabolic Activation: RAT, LIVER, S-9, BETA-NAPHTHOFLAVONE, Method: PREINCUBATION); “active; positive” (Test System: AMES SALMONELLA TYPHIMURIUM, Strain/Indicator: TA100, Metabolic Activation: RAT, LIVER, S-9, PHENOBARBITAL, Method: PREINCUBATION); “active; positive” (Test System: AMES SALMONELLA TYPHIMURIUM, Strain/Indicator: TA100, Metabolic Activation: RAT, LIVER, S-9, Method: PREINCUBATION); “active; positive” under setting [10].

On to `ClCCBr`, for which the mutagenic call (End Point: IN VITRO CHROMOSOMAL ABERRATIONS, Test System: CHL CELLS, Metabolic Activation: RAT, LIVER, S-9, SODIUM PHENOBARBITAL AND 5,6-BENZOFLAVONE) was “active; positive (structural changes)”; the mutagenic call (Test System: AMES SALMONELLA TYPHIMURIUM, Strain/Indicator: TA1530, Metabolic Activation: NONE, Method: SPOT) is “active; positive”; the mutagenic call (Test System: AMES SALMONELLA TYPHIMURIUM, Strain/Indicator: TA1535, Metabolic Activation: NONE, Method: SPOT) was “active; positive”.

On to `Cc1cc(C(=O)NNCc2ccccc2)no1`, for which the mutagenic call is “inactive; negative” under setting [1]; “inactive; negative” under setting [2]; “inactive; negative” under setting [3]; “inactive; negative” under setting [4]; “inactive; negative” under setting [5]; “inactive; negative” under setting [6]. The mutagenic call was “inactive; negative” under setting [7] and “inactive; negative” under setting [8].

For `CCCCCN(CCCC)N=O`, under “Test System: AMES SALMONELLA TYPHIMURIUM, Strain/Indicator: TA100, Metabolic Activation: RAT, LIVER, S-9, KC500 OR PHENOBARBITAL, Method: LIQUID SUSPENSION”, the mutagenic call was “active; positive”.

For `Cc1cc(O)c2c(c1O)C(=O)c1cccc(O)c1C2=O`, the mutagenic call under setting [10] is “inactive; negative”.

Turning to `Nc1ccc(Oc2ccccc2)cc1`, the mutagenic call by setting is: (Test System: AMES SALMONELLA TYPHIMURIUM, Strain/Indicator: TA98, Metabolic Activation: NONE, Method: PREINCUBATION) “inactive; negative”; (Test System: AMES SALMONELLA TYPHIMURIUM, Strain/Indicator: TA98, Metabolic Activation: RAT, BLADDER, S-9, PCB, Method: FLUCTUATION TEST) “active; positive”; (Test System: AMES SALMONELLA TYPHIMURIUM, Strain/Indicator: TA98, Metabolic Activation: RAT, LIVER, S-9, PCB, Method: PREINCUBATION) “active; positive”; (Test System: AMES SALMONELLA TYPHIMURIUM, Strain/Indicator: TA100, Metabolic Activation: GUINEA PIG, LIVER, S-9, KANECLOR 500, Method: STANDARD PLATE) “active; positive”; (Test System: AMES SALMONELLA TYPHIMURIUM, Strain/Indicator: TA100, Metabolic Activation: NONE, Method: PREINCUBATION) “inactive; negative”; (Test System: AMES SALMONELLA TYPHIMURIUM, Strain/Indicator: TA100, Metabolic Activation: RAT, BLADDER, S-9, PCB, Method: FLUCTUATION TEST) “active; positive”. For the same compound, the mutagenic call (Test System: AMES SALMONELLA TYPHIMURIUM, Strain/Indicator: TA100, Metabolic Activation: RAT, LIVER, S-9, PCB, Method: PREINCUBATION) was “active; positive”.

As for `COc1cccc2cccnc12`, the mutagenic call (Test System: AMES SALMONELLA TYPHIMURIUM, Strain/Indicator: TA100, Metabolic Activation: S-9, Method: PREINCUBATION) was “inactive; negative”.

Regarding `CCCCCCC1CO1` (centres undefined), the mutagenic call was “inactive; negative” under setting [3]; “inactive; negative” under setting [5]; “inactive; negative” (Test System: UDS RAT HEPATOCYTES, Strain/Indicator: THY INCORP, Metabolic Activation: NONE).
